# According to EP0344425A2, “N-[[(2,6-disubstituted)phenyl]-N'- arylalkyl] ureas as antihypercholesterolemic and antiatherosclerotic agents” (WARNER-LAMBERT COMPANY, priority 1988, dated 1989):
# pIC50: −log10 of the molar value.
# Biological target: acyl-CoA:cholesterol acyltransferase (ACAT)
# Experiment: in vitro ACAT inhibition test (formation of radio-labeled cholesterol oleate from radio-labeled oleic acid in rabbit intestinal microsomes)
# Assay type: biochemical
# Details: tissue preparation containing rabbit intestinal microsomes; acylation of cholesterol by oleic acid; read-out: IC₅₀
# From the text: The test assesses the ability of a test compound to inhibit the acylation of cholesterol by oleic acid by measuring the amount of radio-labeled cholesterol oleate formed from radio-labeled oleic acid in a tissue preparation containing rabbit intestinal microsomes.
row,SMILES,pIC50
1,"CCCC(CCC)(CNC(=O)Nc1c(C(C)C)cccc1C(C)C)c1ccccc1 [Example 1, N-[2,6-bis(1-Methylethyl)phenyl]-N′-(2-phenyl-2-propylpentyl)urea]",7.52
2,"CCC(CC)(CNC(=O)Nc1c(C(C)C)cccc1C(C)C)c1ccccc1 [Example 2, N-[2,6-bis(1-Methylethyl)phenyl]-N′-(2-ethyl-2-phenylbutyl)urea]",7.77
3,"CCCCC(CCCC)(CNC(=O)Nc1c(C(C)C)cccc1C(C)C)c1ccccc1 [Example 5, N-[2,6-bis(1-Methylethyl)phenyl]-N′-(2-butyl-2-phenylhexyl)urea]",7.52
4,"CC(C)c1cccc(C(C)C)c1NC(=O)NCCc1ccccc1 [Example 6, N-[2,6-bis(1-Methylethyl)phenyl]-N′-(2-phenylethyl)urea]",7.06
5,CC(C)c1cccc(C(C)C)c1NC(=O)NCC(C)c1ccccc1 (stereo not shown) [Example 7],7.46
6,"CC(C)c1cccc(C(C)C)c1NC(=O)NCCCc1ccccc1 [Example 8, N-[2,6-bis(1-Methylethyl)phenyl]-N′-(3-phenylpropyl)urea]",6.72
7,"CC(C)c1cccc(C(C)C)c1NC(=O)NCc1cccc2ccccc12 [Example 9, N-[2,6-bis(1-Methylethyl)phenyl]-N′-[(1-naphthalenyl)methyl]urea]",7.47
8,"CC(C)c1cccc(C(C)C)c1NC(=O)NCCc1cccc2ccccc12 [Example 10, N-[2,6-bis(1-Methylethyl)phenyl]-N′-[2-(1-naphthalenyl)ethyl]urea]",7.39
9,"CC(C)c1cccc(C(C)C)c1NC(=O)N[C@H](C)c1cccc2ccccc12 [Example 12, [R]-N-[2,6-bis(1-Methylethyl)phenyl]-N′-[1-(1-naphthalenyl)ethyl]urea]",7.46
10,"CC(C)c1cccc(C(C)C)c1NC(=O)N[C@@H](C)c1cccc2ccccc12 [Example 13, [S]-N-[2,6-bis(1-Methylethyl)phenyl]-N′-[1-(1-naphthalenyl)ethyl]urea]",6.20
